In ChEMBL document CHEMBL1201862, “PubChem BioAssay data set” (2004):
Active and inactive are the calls of the source.

Key:
P388/ADR = assay: cells; format: functional; conditions: Mus musculus
P388 = assay: cells; format: functional; conditions: Mus musculus
SN12K1 = assay: cells; format: functional; conditions: Homo sapiens
Cytochrome P450 3A4 [1] = biological target: T1, Cytochrome P450 3A4 (Homo sapiens, UniProt P08684); conditions: Potency
[2] = fluconazole-exposed Candida albicans growth modulators – fluorescence, retest, confirmation (AID 2467); format: functional, cell-based
[3] = alpha-synuclein stem-loop luciferase translation blockers – H4 neuroglioma cells, luminescence, confirmation (AID 1988); format: functional, cell-based
[4] = Luminescence Cell-Based Dose Response HTS to Identify Inhibitors of 5'UTR Stem-Loop Driven Prion Protein mRNA Translation in H4 Neuroglioblastoma Cells. [Related pubchem assays: 1827 (Project Summary), 1813 (Primary HTS)]; format: functional
[5] = biological target: T2, DNA repair protein RAD52 homolog (Homo sapiens, UniProt P43351); format: functional, biochemical
T2 sequence (P43351 whole entry): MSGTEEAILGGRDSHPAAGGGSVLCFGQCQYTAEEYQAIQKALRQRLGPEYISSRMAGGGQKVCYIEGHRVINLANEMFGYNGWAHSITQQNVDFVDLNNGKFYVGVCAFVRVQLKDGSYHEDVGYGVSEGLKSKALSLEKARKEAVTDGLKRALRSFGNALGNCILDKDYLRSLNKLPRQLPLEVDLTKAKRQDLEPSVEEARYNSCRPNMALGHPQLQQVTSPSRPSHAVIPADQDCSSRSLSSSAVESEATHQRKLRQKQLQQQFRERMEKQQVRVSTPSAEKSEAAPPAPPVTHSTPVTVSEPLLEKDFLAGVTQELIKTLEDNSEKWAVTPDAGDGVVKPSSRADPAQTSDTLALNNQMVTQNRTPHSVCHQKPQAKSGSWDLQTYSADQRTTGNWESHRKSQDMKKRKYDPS

[6] = microbe, parasite or virus in culture; format: functional; conditions: Mycobacterium tuberculosis
[7] = luciferase reporter signal suppression in cells – H4 neuroglioma cells, luminescence, dose response (AID 1990); format: functional, cell-based
[8] = NIH-3T3 fibroblast cytotoxicity, dose response, cytotoxicity control, cell-based, fluorescence, Alamar Blue, secondary assay (AID 2327); format: functional;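 further: NIH-3T3 mouse fibroblasts cultured with fluconazole at 8 µg/mL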
Escherichia coli = assay: microbe, parasite or virus in culture
[9] = reduction of Shn3 3'UTR-driven luciferase in osteoblasts – cell-based, Clone20 osteoblasts, firefly luciferase, cherry-picked, dose response (AID 624132); format: functional;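 further: firefly luciferase luminescence from reporter carrying the Shn3 3'UTR in osteoblasts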
INS1 = assay: INS-1E survival protection against cytokine death – cell-based, luminescence, retest, dose response (AID 449756); format: functional; conditions: Rattus norvegicus;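 further: cell death triggered by IL-1 beta plus TNF-alpha plus IFN-gamma mixture; protective hits raise ATP signal compared with cytokine alone wells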
[10] = HEK-293T viability loss after treatment – luminescence, T-cell screen hits, cytotoxicity control for TCR NF-kB inhibitor project, dose response (AID 489026); format: functional, cell-based;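 further: cells exposed to compound about 14 hours before the viability readout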
[11] = loss of viability in HepG2 cells – cell-based, CellTiter-Glo, cherry-picked, cytotoxicity control for Shn3 inhibitor project, dose response (AID 624134); format: functional
[12] = non-specific 3'UTR reporter inhibition in Clone20-Shn3RL – cell-based, Renilla luciferase, cherry-picked, counter-screen for Shn3 inhibitor project, dose response (AID 624133); format: functional
[13] = viability loss in THP-1 monocytes – THP-1 cells, cytotoxicity control for Vif-APOBEC3G degradation inhibitor project, dose response (AID 1117359); format: functional; conditions: THP-1
[14] = Trypanosoma cruzi growth suppression in host cells – NIH3T3 host cells, beta-gal luminescence, confirmation (AID 2044); format: functional, cell-based;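 further: intracellular parasites grown in NIH/3T3 mouse fibroblasts as host cells; luminescent beta-galactosidase reporter signal from transgenic T. cruzi replicating inside host cells; inhibitors lower the luminescence signal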
cells [15] = format: functional, cell-based
[16] = THP-1 cell cytotoxicity, dose response, cytotoxicity control for non-replicating M. tuberculosis project (AID 489025); format: functional
[17] = NIH3T3 cell viability loss – ATP luminescence, mouse fibroblasts, counter-screen, dose response (AID 2010); format: functional, cell-based;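 further: cells exposed to compound for about 90 hours before reading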
[18] = Vero E6 cell cytotoxicity, dose response, cytotoxicity control for non-replicating M. tuberculosis project, secondary assay (AID 492998); format: functional, VeroE6; conditions: Vero C1008
cells [19] = format: functional, cell-based; remark: listed apart in the source
cells [20] = format: functional
Streptokinase A = biological target: T3, Streptokinase A (Streptococcus pyogenes serotype M1, UniProt P10520); assay: viability-normalized secreted streptokinase activity reduction – plasminogen activation absorbance, OD405, dose response (AID 1914); format: functional, Streptococcus pyogenes M1 GAS;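 further: secreted streptokinase activity via plasminogen activation per viability signal from cell pellet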
T3 sequence (P10520 whole entry): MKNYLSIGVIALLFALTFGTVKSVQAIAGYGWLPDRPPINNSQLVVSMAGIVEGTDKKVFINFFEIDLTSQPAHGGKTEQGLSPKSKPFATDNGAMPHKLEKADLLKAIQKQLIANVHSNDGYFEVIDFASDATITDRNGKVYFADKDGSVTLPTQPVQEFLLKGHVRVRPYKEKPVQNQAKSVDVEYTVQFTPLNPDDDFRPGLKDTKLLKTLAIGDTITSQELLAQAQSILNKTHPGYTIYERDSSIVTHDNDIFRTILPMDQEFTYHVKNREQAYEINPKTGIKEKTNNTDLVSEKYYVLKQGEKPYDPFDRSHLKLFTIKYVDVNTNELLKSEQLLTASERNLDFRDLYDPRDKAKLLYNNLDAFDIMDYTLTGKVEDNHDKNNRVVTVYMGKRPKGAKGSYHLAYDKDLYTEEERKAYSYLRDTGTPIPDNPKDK

[21] = tested on: Streptococcus sp. 'group A'; assay: Streptococcus pyogenes SK(-)GAS viability under kanamycin – luminescence, BacTiterGlo, confirmation, counter-screen for streptokinase expression inhibitor project, dose response (AID 1900); format: functional, organism-based
Streptococcus = assay: GAS UMAA2166 growth inhibition – luminescence, BacTiterGlo, counter-screen for streptokinase expression inhibitor project, dose response (AID 1915); format: functional, organism-based;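 further: potency for reduction of bacterial viability or growth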
Cytochrome P450 2D6 = Cytochrome P450 2D6 (Homo sapiens, UniProt P10635);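 further: CYP2D6 member of a cytochrome P450 panel assay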
Cytochrome P450 3A4 [22] = biological target: T1, Cytochrome P450 3A4
[23] = Luminescence Cell-Based Dose Retest to Confirm Inhibitors of Cancer Stem Cells. [Related pubchem assays (depositor defined):AID2717, AID2721]; format: functional; conditions: Homo sapiens
BJ [24] = assay: BJ-TERT fibroblast viability loss – cell-based, RAS-independent, luminescence, dose response (AID 1933); format: functional; conditions: Homo sapiens
BJ [25] = assay: BJ-TERT-LT-ST fibroblast viability loss – cell-based, RAS-independent, luminescence, dose response (AID 1935); format: functional; conditions: Homo sapiens;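 further: BJ fibroblasts immortalized with TERT plus LT and ST oncogenes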
[26] = DRD fibroblast viability loss – cell-based, non-viral oncogenic, luminescence, dose response (AID 1934); format: functional; conditions: Homo sapiens
BJ [27] = assay: cells; format: functional, cell-based; conditions: Homo sapiens

T1 sequence (P08684 whole entry): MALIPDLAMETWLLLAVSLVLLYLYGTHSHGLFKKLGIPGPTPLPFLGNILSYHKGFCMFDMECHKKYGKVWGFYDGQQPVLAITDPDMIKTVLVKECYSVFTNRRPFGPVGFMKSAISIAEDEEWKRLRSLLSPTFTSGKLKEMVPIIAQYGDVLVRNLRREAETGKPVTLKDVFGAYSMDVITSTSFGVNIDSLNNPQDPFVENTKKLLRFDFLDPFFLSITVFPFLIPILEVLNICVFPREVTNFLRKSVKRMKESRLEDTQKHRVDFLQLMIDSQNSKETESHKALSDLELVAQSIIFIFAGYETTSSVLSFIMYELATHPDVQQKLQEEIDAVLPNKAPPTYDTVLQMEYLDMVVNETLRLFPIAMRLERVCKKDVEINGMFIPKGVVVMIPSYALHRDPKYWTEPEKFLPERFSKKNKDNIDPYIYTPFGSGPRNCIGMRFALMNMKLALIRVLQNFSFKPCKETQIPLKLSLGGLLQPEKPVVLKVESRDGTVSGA
Chain of Cytochrome P450 2D6 (P10635 whole entry): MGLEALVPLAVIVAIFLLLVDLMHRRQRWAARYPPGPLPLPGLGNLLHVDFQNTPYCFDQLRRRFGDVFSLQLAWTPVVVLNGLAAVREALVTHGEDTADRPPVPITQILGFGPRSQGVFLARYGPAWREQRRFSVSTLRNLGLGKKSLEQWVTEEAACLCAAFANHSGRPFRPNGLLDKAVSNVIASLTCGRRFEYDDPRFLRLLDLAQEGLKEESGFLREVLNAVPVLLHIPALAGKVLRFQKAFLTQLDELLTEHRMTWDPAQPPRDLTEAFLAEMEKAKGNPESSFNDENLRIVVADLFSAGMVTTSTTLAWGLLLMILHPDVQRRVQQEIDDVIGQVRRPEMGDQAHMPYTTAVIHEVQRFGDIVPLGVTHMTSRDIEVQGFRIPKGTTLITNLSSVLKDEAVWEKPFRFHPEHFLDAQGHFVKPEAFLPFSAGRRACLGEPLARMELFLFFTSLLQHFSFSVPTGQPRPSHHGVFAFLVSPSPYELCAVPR

CC(C)=CC1C(C(=O)O)C1(C)C (stereo unspecified) [CHRYSANTHEMIC ACID]
GI50 (P388/ADR): 488 µM (inactive) | GI50 (P388): > 750 µM (inactive) | GI50 (SN12K1): > 750 µM (inactive)

CCCn1c(C)nc2c(NC3CCN(Cc4ccccc4)C3)nc(C)nc21 (stereo unspecified)
AC50 (Cytochrome P450 3A4 [1]): 15.8 µM (inconclusive)

CNC(=O)OCc1c(CO)nc(SC)n1C
GI50 (P388/ADR): > 100 µM (inactive) | GI50 (P388): > 100 µM (inactive) | GI50 (SN12K1): > 100 µM (inactive)

Clc1cccc(C(Cl)(Cl)Cl)n1 [NITRAPYRIN]
AC50 (Cytochrome P450 3A4 [1]): 12.6 µM (inconclusive)

COc1ccc(O)c(C#N)c1C#N.COc1ccc(OC)c(C#N)c1C#N
GI50 (P388/ADR): > 100 µM (inactive) | GI50 (P388): > 100 µM (inactive) | GI50 (SN12K1): > 100 µM (inactive)

COc1ccc(-c2nc(CN3CCN(c4cc(C)nc(C)c4)CC3)c(C)o2)c2ccccc12
EC50 [2]: 3.22 µM (active) | EC50 [3]: 10.7 µM (active) | EC50 [4]: > 120 µM (not active) | AC50 [5]: 7 µM (active) | CC50 [6]: 11.5 µM (active) | EC50 [7]: 20.9 µM (active) | EC50 [8]: > 160 µM (inactive)

Brc1ccc2[nH]c3c(C4=NCCC4)nccc3c2c1
GI50 (P388/ADR): 9.57 µM (inactive) | GI50 (P388): 9.51 µM (inactive) | GI50 (SN12K1): 9.98 µM (inactive)

CC(=O)c1cc(CN2CCN(C3CCCCC3)C(CCO)C2)cs1 (stereo unspecified)
AC50 (Escherichia coli): 27.7 µM (active)

O=C(NNc1ccnc2cc(Cl)ccc12)C1CCCCC1
AC50 [9]: < 0.26 µM (active) | AC50 (INS1): 1.42 µM (active) | IC50 [10]: > 80 µM (inactive) | AC50 [11]: 0.409 µM (active) | AC50 [12]: 1.39 µM (active)

COc1ccc(CCN2C(=O)CC(NNC(=O)c3ccc(F)cc3)C2=O)cc1OC (stereo unspecified)
AC50 (Escherichia coli): 20.9 µM (active)

COc1ccccc1CNCC(=O)Nc1ccc(N2CCOCC2)cc1
CC50 [13]: 30.7 µM (active)

c1ccc(CSc2ccc(-c3ccccn3)nn2)cc1
AC50 (INS1): 5.5 µM (active) | EC50 [14]: 1.99 µM (active) | EC50 (cells [15]): 85.6 µM (active) | CC50 [16]: 14.2 µM (active) | EC50 [17]: > 30 µM (not active) | CC50 [18]: 12 µM (active) | CC50 [6]: 36.9 µM (active) | EC50 (cells [19]): 28.4 µM (active) | IC50 (cells [20]): 15.1 µM (active)

Cc1nn(-c2ccccc2)c2sc(C(=O)N3CCc4ccccc4C3)cc12
EC50 (Streptokinase A): > 150 µM (not active) | EC50 [21]: 4.55 µM (active) | EC50 (Streptococcus): 14.6 µM (active) | CC50 [13]: > 40 µM (active)

O=C(c1cccc(F)c1)N1CCC2(CC1)CCN(c1ccc(-c3ccccc3)cc1)CC2
AC50 (Cytochrome P450 2D6): 10 µM (inconclusive) | AC50 (Cytochrome P450 3A4 [22]): inconclusive

CCCCS(=N)(=O)CCC(N)C(=O)O (stereo unspecified) [BUTHIONINE SULFOXIMINE]
AC50 (Cytochrome P450 3A4 [1]): 20 µM (inconclusive)

Cc1ccsc1/C=N/NC(=O)c1cc(-c2ccncc2)nc2ccccc12
AC50 [23]: 0.168 µM (active) | IC50 [10]: 47.1 µM (inactive) | EC50 (BJ [24]): 2.93 µM (inconclusive) | EC50 (BJ [25]): 4.22 µM (inconclusive) | EC50 [26]: 2.94 µM (active) | EC50 (BJ [27]): 2.88 µM (active)
